The values below come from publication PMC2810561 (Journal of the American Chemical Society, 2009).

For the assay, the system named is T84 human intestinal cells. Format: cell-based.

For cholera toxin, the “secretory response (short-circuit current) to cholera toxin” value is “a pronounced secretory response was observed”.
